In a melting point compilation (Tetko et al.; mined from patent text by program, amines drawn as free bases though some values may be those of a salt):

Row | Compound | melting point [°C]
1 | O=Cc1cn(-c2ccc(C(F)(F)F)cn2)nc1C1CCCCC1 | 103 to 104
2 | CN1CCC(=O)C(C(c2ccc(F)cc2)c2ccc(F)cc2)C1 (centres undefined) | 127 to 129
3 | N#CC1CN1C(=O)CN1C(=O)c2ccccc2C1=O (centres undefined) | 126 to 128
4 | CCCCOC(=O)COc1cc(F)c(-c2nn(C)c(C(F)(F)F)c2Cl)cc1[N+](=O)[O-] | 65
5 | O=C(Cn1c(=O)sc2ccc(Cl)cc21)N1CCC(O)CC1 | 180
6 | CC1CC(=O)NN=C1c1ccc(NCC(C)(C)[N+](=O)[O-])cc1 (centres undefined) | 187 to 189
7 | CCn1cc(C(=O)O)c(=O)c2cc(F)c(N3C[C@@H](N)[C@@H]3C)cc21 (relative stereo) | 232 to 235
8 | C/C(=N\O)C(=O)c1ccc(F)cc1F | 99 to 101
9 | N#Cc1ccc(N2C(=O)[C@@H]3[C@H](O)CCN3C2=O)c2c1OCCO2 | 196 to 197
10 | C[Si](C)(C)C#C[C@@]1(O)[C@@H](COC(=O)c2ccc(Cl)cc2)OC(O)[C@@H]1O (some centres undefined) | 130 to 132
11 | O=c1[nH]c2cc(Br)ccc2c(=O)n1Cc1ccc(I)cc1F | 303 to 304
12 | Cc1nc(N)sc1-c1ccnc(Nc2ccc(N3CCSCC3)cc2)n1 | 180 to 182
13 | O=C1CNC(=O)N1CCNCc1ccc(CN2CCCCC2)o1 | 133 to 136
14 | CC(C)(C)c1cc(C(=O)c2ncco2)cc(C(C)(C)C)c1O | 127 to 130
15 | C[Si](C)(C)C#Cc1cnn2c(C(F)(F)F)cc(-c3ccc(Cl)cc3)nc12 | 198
16 | Cc1nc2ncnn2c2c1c(O)c(O)n2C | 215 to 217
17 | O=C(c1ccccn1)c1nsc2nccn12 | 147 to 148
18 | CC(C)c1ccc(N(Cc2ccc(N(C)C)cc2)C(=O)Nc2c(C(C)C)cccc2C(C)C)cc1 | 203 to 206
19 | CS(=O)(=O)c1ccc(C(=O)c2cc(-c3ccncc3)c(N3CCOCC3)s2)cc1 | 128

Row | Compound | melting point [°C]
20 | CCCCCCCCCc1cc(C(=O)O)n[nH]1 | 147 to 149
21 | C[C@H]1CN(c2c(F)c(F)c3c(=O)c(C(=O)O)cn(C4CC4)c3c2F)C[C@H]1N (relative stereo) | 255 to 256
22 | OC(CCc1ccc(Cl)s1)Cn1ccnc1 (centres undefined) | 82 to 84.5
23 | CCOCC(=NO)C(C)(C)NOC(CNC(C)(C)C(C)=NO)Cn1ccnc1[N+](=O)[O-] (centres undefined) | 129 to 130
24 | CC(Oc1ccc2nc(NC(=O)NCCN3CCOCC3)sc2c1)c1c(Cl)ccc(F)c1Cl (centres undefined) | 110
25 | COc1c(C)c2c(c(NC(=O)N(C)C)c1C/C=C(\C)CCC(=O)O)C(=O)OC2 | 170 to 190
26 | CCOC(=O)COc1c2ccccc2cc2c1c(C(=O)C(N)=O)c(CC)n2Cc1ccccc1 | 130 to 131
27 | CC(=O)OC1CCC2(COS(=O)(=O)c3ccc(C)cc3)C(=CCC3C2CCC2(C)C(OC(C)=O)CCC32)C1 (centres undefined) | 135 to 137
28 | CCCCNS(=O)(=O)CC(O)C(O)C(CC1CCCCC1)NC(=O)c1ccc(O)nc1 (centres undefined) | 247 to 252
29 | Cc1ccc2c(c1)c(N1CCNCC1)c(C#N)c(=O)n2Cc1ccc(F)cc1 | 121
30 | Cc1ccc(C(=O)NC2CC2)cc1-c1cc2cnc(NC3CCOCC3)nc2n(C)c1=O | 239 to 241
31 | NC(=O)c1ccc(N2CCN(c3ccncc3)CC2)cc1 | 327 to 330
32 | CCOC(=O)CCCn1c(Nc2c(C)noc2C)nc2c(Cl)ccc(C(CC)CC)c21 | 135 to 138
33 | CCC12CCC3C4CCC(=O)C=C4CCC3C1CCC2OCCN(C)C (centres undefined) | 87 to 88
34 | CC(=O)NC1C(O)OC(COC(C)=O)C(O)(C(C)=O)C1OC(C)C(=O)O (centres undefined) | 85.8 to 90.8
35 | C=CCN(CC=C)Cc1noc(-c2ncn3c2[C@@H]2CCN2C(=O)c2c(Cl)cccc2-3)n1 | 190 to 192
36 | COCC1COc2cc3ncnc(Nc4cc(C)cc(C)c4)c3cc2O1 (centres undefined) | 268 to 270
37 | C=CC12CCc3cc(O)ccc3C1CCC1(C)C(O)CCC12 (centres undefined) | 149 to 151

The remaining lines, values ahead:

Row | melting point [°C] | Compound
38 | 109 to 111 | CCC(C(=O)OCC[Si](C)(C)C)c1ccccc1CCC(=O)c1cccc(C=Cc2ccc3ccc(Cl)cc3n2)c1 (centres undefined)
39 | 222 to 224 | Nc1ncccc1-c1nc2ccc(-c3cccnc3)nc2n1-c1ccc(NC(=O)c2ccccc2)cc1
40 | 209 to 210 | COc1cc2ncnc(N3CCN(C(=O)Nc4ccc5[nH]ccc5c4)CC3)c2cc1OC
41 | 106 | COc1cc(/C=C/C(=O)CC(=O)Cc2ccccc2)ccc1O
42 | 88 to 90 | C#C[C@]1(C)CCc2c(C)c(OCc3ccccc3)c(C)c(C)c2O1
43 | 132 | CCOC(=O)Nc1ccc(C(c2ccccc2)n2ccnc2)cc1COC1CCCCO1 (centres undefined)
44 | 212 to 215 | Cc1ccc2cccc(OCc3c(Cl)ccc([N+](=O)[O-])c3C#N)c2n1
45 | 85 to 92 | O=C(O)c1cccc(OCCNC(=O)C2Cc3ccccc3N2S(=O)(=O)c2ccc(-c3cccc(C(F)(F)F)c3)cc2)c1 (centres undefined)
46 | > 250 | NC(=O)N1C(=O)C(C(=O)c2ccco2)c2ncc(Cl)cc21 (centres undefined)
47 | 133 | COC(=O)C(Cc1cc(OC)cc(C(F)(F)F)c1)NC(=O)c1ccccc1 (centres undefined)
48 | 90 to 91 | COc1ccccc1S(=O)(=O)OC(Br)C(=O)c1ccccc1 (centres undefined)
49 | 173 to 174 | O=S(=O)(NCC(O)(Cn1cncn1)c1ccc(Cl)cc1Cl)c1cc(Cl)ccc1Cl (centres undefined)
50 | 167 to 171 | COc1cc2c(cc1OCCN(C)C)N(C(=O)c1ccc(-c3ccc(C#N)cc3C)cc1)CC2
51 | 215 to 216 | Oc1ccc(-c2ccc3c(Cl)c(O)ccc3n2)cc1
52 | 189 to 190 | COc1ccc(NC(=NC#N)NC(NC(=O)c2cccc(Cl)c2)C(C)(Cl)Cl)cn1 (centres undefined)
53 | 98 | CC(C)C1C(=O)C(c2ccc(S(C)(=O)=O)cc2)=C1c1ccccc1 (centres undefined)

Row | melting point [°C] | Compound
54 | 154 to 157 | CCOC(=O)Nc1c(C(=O)c2cccc(C)c2)[nH]c2cc(Cl)ccc12
55 | 199 to 201 | O=c1[nH]nc(CO)c2ccccc12
56 | 117 to 119 | COC(=O)C(=Cc1cc(OC)c(OC)cc1Br)c1ccccc1C(=O)OC
57 | 212 | CN(CCOc1ccc(C=C2SC(=O)NC2=O)cc1)c1nccs1
58 | 106 to 108 | COc1ccc([N+](=O)[O-])c(C=O)c1OC
59 | 251 | Cc1nc2sc(S(N)(=O)=O)cc2c(=O)n1-c1ccccc1Cl
60 | 163 to 164 | O=C(O)C[C@@H](Oc1c(Br)cc(-c2c3ccccc3c(Br)c3sc4ccccc4c23)cc1Br)C(=O)O
61 | 88 to 90 | COc1ccccc1N1CCN(C(=O)Nc2cc(C(C)O)c(C)nc2OC)CC1 (centres undefined)
62 | 171 to 173 | O=C(O)c1ccc(C(=O)NOCCCc2ccccc2)cc1
63 | 196 | CN(C)CCC(=O)Nc1ccc2c(c1)C(=O)c1cc(NC(=O)CCN(C)C)ccc1C2=O
64 | 168 | CN(C)c1ccc(C=Cc2ccc(N)cc2)cc1
65 | 248 to 250 | N#Cc1cnc2cc(Br)sc2c1Nc1ccc(Oc2ccccc2)cc1
66 | 128 to 135 | CC1(C)SC2C(NC(=O)C(NC(=O)CBr)c3ccccc3)C(=O)N2C1c1nnn[nH]1 (centres undefined)
67 | 134 to 137 | CC(C)(O)C(=O)Nc1ccc2oc3ccccc3c2c1
68 | 82.2 to 84.2 | CCc1ccccc1-c1cccc(Br)c1OCc1cccc(C(=O)NCCO)c1
69 | 144 to 146 | O=C(O)COCC(=O)OCC1CN(C(=O)Oc2ccccc2)CCC1c1ccc(F)cc1 (centres undefined)
